{"source": "patent US9399636B2", "about": "“Substituted dipyridylamines and uses thereof” (Genentech, Inc., priority 2012, dated 2016)", "data": [{"molecular_target": "T1, DLK (Homo sapiens, UniProt Q12852)", "T1 construct": "N-terminally GST-tagged DLK (catalytic domain amino acid 1-520) (Carna Bioscience); GST (N); purchased Carna Bioscience", "T1 sequence (Q12852 1-520)": "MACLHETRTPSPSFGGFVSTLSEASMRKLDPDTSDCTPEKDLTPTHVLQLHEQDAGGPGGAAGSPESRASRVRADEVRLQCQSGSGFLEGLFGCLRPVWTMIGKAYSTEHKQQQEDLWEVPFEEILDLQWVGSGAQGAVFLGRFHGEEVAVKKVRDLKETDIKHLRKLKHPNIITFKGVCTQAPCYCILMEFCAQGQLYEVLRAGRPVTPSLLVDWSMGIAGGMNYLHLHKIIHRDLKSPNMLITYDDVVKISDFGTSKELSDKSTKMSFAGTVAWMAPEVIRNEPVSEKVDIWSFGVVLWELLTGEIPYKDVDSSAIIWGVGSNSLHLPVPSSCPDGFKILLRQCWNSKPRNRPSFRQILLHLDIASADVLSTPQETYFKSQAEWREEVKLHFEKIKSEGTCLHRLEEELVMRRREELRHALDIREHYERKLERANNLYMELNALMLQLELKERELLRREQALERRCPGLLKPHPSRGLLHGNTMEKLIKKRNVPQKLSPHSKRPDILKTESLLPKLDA", "test": "DLK TR-FRET assay", "assay_type": "biochemical", "settings": "5 nM GST-tagged DLK (catalytic domain amino acid 1-520), 40 nM HIS-tagged MKK4 K131M substrate, 30 μM ATP, 60 minutes", "summary_of_the_method": "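5 nM GST-tagged DLK catalytic domain (aa 1-520) with 40 nM HIS-MKK4 K131M substrate and 30 μM ATP in HEPES pH 7.5/MgCl2 buffer. Compounds tested in 1:3 serial dilution from 20 uM, 60 min at ambient temperature. EDTA quench, then 3 h with Eu-anti-phospho-MKK4 and D2-anti-HIS before TR-FRET read (665/615 nm).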", "units": {"Ki": "nM"}, "values": [{"molecule": "Cc1cc(C2CCOCC2)cc(Nc2cc(CN)ccn2)n1", "note": "[Example 113, (4-Aminomethyl-pyridin-2-yl)-[6-methyl-4-(tetrahydro-pyran-4-yl)-pyridin-2-yl]-amine]", "Ki": 1600}, {"molecule": "Cc1ccnc(Nc2cc(C3CCN(C(=O)[C@@H]4CCCCN4)CC3)ccn2)c1", "note": "[Example 147, (S)-(4-(2-((4-methylpyridin-2-yl)amino)pyridin-4-yl)piperidin-1-yl)(piperidin-2-yl)methanone]", "Ki": 1200}, {"molecule": "Cc1cc(C2CCN(S(C)(=O)=O)CC2)cc(Nc2cc(C#N)ccn2)n1", "note": "[Example 109, 2-(1′-Methanesulfonyl-6-methyl-1′,2′,3′,4′,5′,6′-hexahydro-[4,4′]bipyridinyl-2-ylamino)-isonicotinonitrile]", "Ki": 140}, {"molecule": "O=C1CCCN1c1cc(C2CCN(C3COC3)CC2)cc(Nc2cc(C(F)F)ccn2)n1", "note": "[Example 42, 1-[6-(4-Difluoromethyl-pyridin-2-ylamino)-1′-oxetan-3-yl-1′,2′,3′,4′,5′,6′-hexahydro-[4,4′]bipyridinyl-2-yl]-pyrrolidin-2-one]", "Ki": 6.4}, {"molecule": "FC(F)c1ccnc(Nc2cc(C3CCN(C4COC4)CC3)cc(Cl)n2)c1", "note": "[Example 76, (6-Chloro-1′-oxetan-3-yl-1′,2′,3′,4′,5′,6′-hexahydro-[4,4′]bipyridinyl-2-yl)-(4-difluoromethyl-pyridin-2-yl)-amine]", "Ki": 16}, {"molecule": "N#Cc1ccnc(Nc2cc(C3(C#N)CCOCC3)cc(N3CCC(F)(F)C3)n2)c1", "note": "[Example 61, 2-[4-(4-Cyano-tetrahydro-pyran-4-yl)-6-(3,3-difluoro-pyrrolidin-1-yl)-pyridin-2-ylamino]-isonicotinonitrile]", "Ki": 4.7}, {"molecule": "C[C@@H]1CCCN1c1cc(C2CCN(C3COC3)CC2)cc(Nc2cc(C(F)F)ccn2)n1", "note": "[Example 68, (4-Difluoromethyl-pyridin-2-yl)-[6-((R)-2-methyl-pyrrolidin-1-yl)-1′-oxetan-3-yl-1′,2′,3′,4′,5′,6′-hexahydro-[4,4′]bipyridinyl-2-yl]-amine]", "Ki": 0.3}, {"molecule": "N#Cc1ccnc(Nc2cc(C3CCN(C4COC4)CC3)cc(N3CC(F)C3)n2)c1", "note": "[Example 91, 2-[6-(3-Fluoro-azetidin-1-yl)-1′-oxetan-3-yl-1′,2′,3′,4′,5′,6′-hexahydro-[4,4′]bipyridinyl-2-ylamino]-isonicotinonitrile]", "Ki": 6.7}, {"molecule": "Cn1cc(-c2cc(C3CCOCC3)cc(Nc3cc(OC(F)F)ccn3)n2)cn1", "note": "[Example 118, (4-Difluoromethoxy-pyridin-2-yl)-[6-(1-methyl-1H-pyrazol-4-yl)-4-(tetrahydro-pyran-4-yl)-pyridin-2-yl]-amine]", "Ki": 4}, {"molecule": "N#Cc1ccnc(Nc2cc(C3CCN(C4COC4)CC3)cc(N3CC4CC4C3)n2)c1", "note": "(stereo not shown) [Example 92, 2-[6-(3-Aza-bicyclo[3.1.0]hex-3-yl)-1′-oxetan-3-yl-1′,2′,3′,4′,5′,6′-hexahydro-[4,4′]bipyridinyl-2-ylamino]-isonicotinonitrile]", "Ki": 0.7}, {"molecule": "N#CC1(c2cc(Nc3cc(C(F)F)ccn3)nc(N3CCCC3=O)c2)CCOCC1", "note": "[Example 49, 4-[2-(4-Difluoromethyl-pyridin-2-ylamino)-6-(2-oxo-pyrrolidin-1-yl)-pyridin-4-yl]-tetrahydro-pyran-4-carbonitrile]", "Ki": 19}, {"molecule": "CC1CCCN1c1cc(C2CCN(S(C)(=O)=O)C2)cc(Nc2cc(C(F)(F)F)ccn2)n1", "note": "(stereo not shown) [Example 132, [4-(1-Methanesulfonyl-pyrrolidin-3-yl)-6-(2-methyl-pyrrolidin-1-yl)-pyridin-2-yl]-(4-trifluoromethyl-pyridin-2-yl)-amine]", "Ki": 2.12}, {"molecule": "Cc1cc(C2=CCOCC2)cc(Nc2cc(C#N)ccn2)n1", "note": "[Example 112, 2-[4-(3,6-Dihydro-2H-pyran-4-yl)-6-methyl-pyridin-2-ylamino]-isonicotinonitrile]", "Ki": 220}, {"molecule": "CS(=O)(=O)N1CCC(c2ccnc(Nc3cc(C#N)ccn3)c2)CC1", "note": "[Example 128, 2-(1′-Methanesulfonyl-1′,2′,3′,4′,5′,6′-hexahydro-[4,4′]bipyridinyl-2-ylamino)-isonicotinonitrile]", "Ki": 450}, {"molecule": "N#Cc1ccnc(Nc2cc(C3CCN(C4COC4)CC3)cc(N3CC4(CCOC4)C3)n2)c1", "note": "[Example 93, 2-[6-(6-Oxa-2-aza-spiro[3.4]oct-2-yl)-1′-oxetan-3-yl-1′,2′,3′,4′,5′,6′-hexahydro-[4,4′]bipyridinyl-2-ylamino]-isonicotinonitrile]", "Ki": 20}, {"molecule": "N#Cc1ccnc(Nc2cc(C3CCOCC3)cc(N3CC(F)(F)C3)n2)c1", "note": "[Example 104, 2-[6-(3,3-Difluoro-azetidin-1-yl)-4-(tetrahydro-pyran-4-yl)-pyridin-2-ylamino]-isonicotinonitrile]", "Ki": 12.6}, {"molecule": "N#Cc1ccnc(Nc2cc(C3CCN(C4COC4)CC3)cc(N3CCC3)n2)c1", "note": "[Example 105, 2-(6-Azetidin-1-yl-1′-oxetan-3-yl-1′,2′,3′,4′,5′,6′-hexahydro-[4,4′]bipyridinyl-2-ylamino)-isonicotinonitrile]", "Ki": 7}, {"molecule": "N#Cc1ccnc(Nc2cc(C3CCOCC3)cc(N3CC4(COC4)C3)n2)c1", "note": "[Example 82, 2-[6-(2-Oxa-6-aza-spiro[3.3]hept-6-yl)-4-(tetrahydro-pyran-4-yl)-pyridin-2-ylamino]-isonicotinonitrile]", "Ki": 100}, {"molecule": "CC(C)(C)OC(=O)N1CC(c2cc(Cl)nc(Nc3cc(C#N)ccn3)c2)C1", "note": "[Example 41, 3-[2-Chloro-6-(4-cyano-pyridin-2-ylamino)-pyridin-4-yl]-azetidine-1-carboxylic acid tert-butyl ester]", "Ki": 56}, {"molecule": "COc1cc(C2CCN(C(C)=O)CC2)cc(Nc2cc(C#N)ccn2)n1", "note": "[Example 21, 2-(1′-Acetyl-6-methoxy-1′,2′,3′,4′,5′,6′-hexahydro-[4,4′]bipyridinyl-2-ylamino)-isonicotinonitrile]", "Ki": 12}, {"molecule": "CCCCOc1cc(C2CCN(C3COC3)CC2)cc(Nc2cc(C(F)F)ccn2)n1", "note": "[Example 43, (6-Butoxy-1′-oxetan-3-yl-1′,2′,3′,4′,5′,6′-hexahydro-[4,4′]bipyridinyl-2-yl)-(4-difluoro-methyl-pyridin-2-yl)-amine]", "Ki": 3.8}, {"molecule": "FC(F)c1ccnc(Nc2cc(C3CCN(C4COC4)CC3)cc(C3CC3)n2)c1", "note": "[Example 25, (6-Cyclopropyl-1′-oxetan-3-yl-1′,2′,3′,4′,5′,6′-hexahydro-[4,4′]bipyridinyl-2-yl)-(4-difluoromethyl-pyridin-2-yl)-amine]", "Ki": 0.84}, {"molecule": "Cc1cc(C2CCN(C(=O)C(F)(F)F)CC2)cc(Nc2cc(C#N)ccn2)n1", "note": "[Example 107, 2-[6-Methyl-1′-(2,2,2-trifluoro-acetyl)-1′,2′,3′,4′,5′,6′-hexahydro-[4,4′]bipyridinyl-2-ylamino]-isonicotinonitrile]", "Ki": 120}, {"molecule": "COC1CN(c2cc(C3CCN(C4COC4)CC3)cc(Nc3cc(C(F)F)ccn3)n2)C1", "note": "[Example 48, (4-Difluoromethyl-pyridin-2-yl)-[6-(3-methoxy-azetidin-1-yl)-1′-oxetan-3-yl-1′,2′,3′,4′,5′,6′-hexahydro-[4,4′]bipyridinyl-2-yl]-amine]", "Ki": 21}, {"molecule": "N#Cc1ccnc(Nc2cc(C3(C#N)CCNCC3)cc(N3CCC(F)(F)C3)n2)c1", "note": "[Example 31, 2′-(4-Cyano-pyridin-2-ylamino)-6′-(3,3-difluoro-pyrrolidin-1-yl)-2,3,5,6-tetrahydro-1H-[4,4′]bipyridinyl-4-carbonitrile]", "Ki": 0.17}, {"molecule": "N#Cc1ccnc(Nc2cc(C3CCOCC3)cc(N3CCC4CC43)n2)c1", "note": "(stereo not shown) [Example 83, 2-[6-(2-Aza-bicyclo[3.1.0]hex-2-yl)-4-(tetrahydro-pyran-4-yl)-pyridin-2-ylamino]-isonicotinonitrile]", "Ki": 4.6}, {"molecule": "CC(=O)N1CCC(c2cc(Nc3cc(C(F)F)ccn3)nc(C3CC3)c2)CC1", "note": "[Example 57, 1-[6′-Cyclopropyl-2′-(4-difluoromethyl-pyridin-2-ylamino)-3,4,5,6-tetrahydro-2H-[4,4′]bipyridinyl-1-yl]-ethanone]", "Ki": 3.5}, {"molecule": "N#CC1(c2cc(Nc3cc(C(F)(F)F)ccn3)nc(N3CC(F)C3)c2)CCNCC1", "note": "[Example 23, 6′-(3-Fluoro-azetidin-1-yl)-2′-(4-trifluoromethyl-pyridin-2-ylamino)-2,3,5,6-tetrahydro-1H-[4,4′]bipyridinyl-4-carbonitrile]", "Ki": 0.32}, {"molecule": "CC(C)(C)OC(=O)N1CC(c2cc(Cl)nc(Nc3cc(C(F)F)ccn3)c2)C1", "note": "[Example 45, 3-[2-Chloro-6-(4-difluoromethyl-pyridin-2-ylamino)-pyridin-4-yl]-azetidine-1-carboxylic acid tert-butyl ester]", "Ki": 48}, {"molecule": "N#Cc1ccnc(Nc2cc(C3CCOCC3)cc(N3CC4(CCOC4)C3)n2)c1", "note": "[Example 102, 2-[6-(6-Oxa-2-aza-spiro[3.4]oct-2-yl)-4-(tetrahydro-pyran-4-yl)-pyridin-2-ylamino]-isonicotinonitrile]", "Ki": 88}, {"molecule": "N#Cc1ccnc(Nc2cc(C3CCN(C4COC4)CC3)cc(N3CCC[C@@H]3C(F)(F)F)n2)c1", "note": "[Example 70, 2-[1′-Oxetan-3-yl-6-((R)-2-trifluoromethyl-pyrrolidin-1-yl)-1′,2′,3′,4′,5′,6′-hexahydro-[4,4′]bipyridinyl-2-ylamino]-isonicotinonitrile]", "Ki": 1.8}]}]}
